Results: ChEMBL document CHEMBL3792312, “Synthesis and docking studies of pyrazine-thiazolidinone hybrid scaffold targeting dormant tuberculosis” (Bioorg Med Chem Lett, 2016)
Converted amounts (≈) assume the structure as drawn.

Key:
Staphylococcus aureus [1] = test: Antibacterial activity against Staphylococcus aureus at 3 ug after 12 hrs; type: functional
A549 = test: (§1) Cytotoxicity against human A549 cells after 3 days by MTT assay; type: cell-based; conditions: Homo sapiens, A549, 72 h
[2] = as §1; type: cell-based; conditions: human, A549 cells; read-out: MIC
[3] = Cytotoxicity against human THP1 cells after 5 days by MTT assay; type: cell-based, THP-1; conditions: for IC50: Homo sapiens, THP-1, 120 h; for MCC at 120 h: human, THP1 cells, read-out: MIC
Pseudomonas fluorescens [4] = test: Antibacterial activity against Pseudomonas fluorescens at 10 ug after 8 hrs; type: functional
[5] = test system: Mycolicibacterium smegmatis; test: Antitubercular activity against dormant Mycobacterium smegmatis MC2 155 at 30 ug after 12 days by XTT-Menadione assay; type: functional, str. MC2 155
[6] = test system: Mycobacterium tuberculosis; test: Antitubercular activity against dormant Mycobacterium tuberculosis H37Ra at 3 ug after 12 days by XTT-Menadione assay; type: functional
Bacillus subtilis [7] = test: Antibacterial activity against Bacillus subtilis at 3 ug after 12 hrs; type: functional
Escherichia coli [8] = test: Antibacterial activity against Escherichia coli at 30 ug after 8 hrs; type: functional
Escherichia coli [9] = test: Antibacterial activity against Escherichia coli at 3 ug after 8 hrs; type: functional
Staphylococcus aureus [10] = test: Antibacterial activity against Staphylococcus aureus at 30 ug after 12 hrs; type: functional
Pseudomonas fluorescens [11] = test: Antibacterial activity against Pseudomonas fluorescens at 30 ug after 8 hrs; type: functional
Bacillus subtilis [12] = test: Antibacterial activity against Bacillus subtilis at 30 ug after 12 hrs; type: functional
[13] = Cytotoxicity against human PANC1 cells after 5 days by MTT assay; type: cell-based, PANC-1; conditions: for IC50: Homo sapiens, PANC-1, 120 h; for MCC at 120 h: human, PANC1 cells, read-out: MIC
[14] = test system: Mycobacterium tuberculosis; test: Antitubercular activity against dormant Mycobacterium tuberculosis H37Ra at 30 ug after 12 days by XTT-Menadione assay; type: functional
[15] = test system: Mycobacterium tuberculosis; test: Antitubercular activity against dormant Mycobacterium tuberculosis H37Ra after 12 days by XTT-Menadione assay; type: functional, organism-based; conditions: 288 h
[16] = test system: Mycobacterium tuberculosis; test: Antitubercular activity against dormant Mycobacterium tuberculosis H37Ra at 10 ug after 12 days by XTT-Menadione assay; type: functional
[17] = test system: Mycolicibacterium smegmatis; test: Antitubercular activity against dormant Mycobacterium smegmatis MC2 155 at 10 ug after 12 days by XTT-Menadione assay; type: functional, str. MC2 155
[18] = (§2) Cytotoxicity against human MCF7 cells after 4 days by MTT assay; type: cell-based; conditions: human, MCF7 cells; read-out: MIC
MCF7 = test: as §2; type: cell-based; conditions: Homo sapiens, MCF7, 96 h
Staphylococcus aureus [19] = test: Antibacterial activity against Staphylococcus aureus at 10 ug after 12 hrs; type: functional
Pseudomonas fluorescens [20] = test: Antibacterial activity against Pseudomonas fluorescens at 3 ug after 8 hrs; type: functional
Bacillus subtilis [21] = test: Antibacterial activity against Bacillus subtilis at 10 ug after 12 hrs; type: functional
Escherichia coli [22] = test: Antibacterial activity against Escherichia coli at 10 ug after 8 hrs; type: functional
[23] = test system: Mycolicibacterium smegmatis; test: Antitubercular activity against dormant Mycobacterium smegmatis MC2 155 at 3 ug after 12 days by XTT-Menadione assay; type: functional, str. MC2 155

| SMILES | inhibition (INH) (Staphylococcus aureus [1]) [%] | IC50 (A549) [µg/mL] | MCC at 72 h [2] [µg/mL] | inhibition (INH) (Pseudomonas fluorescens [4]) [%] | inhibition (INH) [5] [%] | inhibition (INH) [6] [%] | inhibition (INH) (Bacillus subtilis [7]) [%] | inhibition (INH) (Escherichia coli [8]) [%] | inhibition (INH) (Escherichia coli [9]) [%] | inhibition (INH) (Staphylococcus aureus [10]) [%] | inhibition (INH) (Pseudomonas fluorescens [11]) [%] | inhibition (INH) (Bacillus subtilis [12]) [%] | inhibition (INH) [14] [%] | inhibition (INH) [16] [%] | inhibition (INH) [17] [%] | inhibition (INH) (Staphylococcus aureus [19]) [%] | inhibition (INH) (Pseudomonas fluorescens [20]) [%] | inhibition (INH) (Bacillus subtilis [21]) [%] | inhibition (INH) (Escherichia coli [22]) [%] | inhibition (INH) [23] [%] | further results |
| --- | --- | --- | --- | --- | --- | --- | --- | --- | --- | --- | --- | --- | --- | --- | --- | --- | --- | --- | --- | --- | --- |
| Cc1cnc(C(=O)NN2C(=O)CS[C@H]2c2ccc(N(C)C)cc2)cn1 | 34.87 | > 100 | > 100 | 29.04 | 23.39 | 60.23 | 5.9 | 46.74 | 35.59 | 22.9 | 21.18 | 3.26 | 91.72 | 65.91 | 9.803 | 27.85 | 12.03 | 2.71 | 28.08 | -19.7482 | IC50 [3]: > 100 µg/mL; MCC at 120 h [3]: > 100 µg/mL; IC50 [13]: > 100 µg/mL; MCC at 120 h [13]: > 100 µg/mL; IC50 [15]: 2.31 µg/mL (≈ 6.46 µM); MIC [15]: 28.4 µg/mL (≈ 79.5 µM); MCC at 96 h [18]: > 100 µg/mL; IC50 (MCF7): > 100 µg/mL |
| Nc1nccnc1C(=O)NN1C(=O)CSC1c1ccccc1 (configuration not stated) | -20.13 | 77 (≈ 244 µM) | > 100 | 3.29 | -60.9565 | 70.02 | -4.3 | 8.78 | -94.8 | -1.45 | 30.72 | 19.82 | 91.57 | 71.09 | 52.56 | 32.35 | 25.98 | -6.1 | -71.2 | 43.05 | IC50 [3]: 89.6 µg/mL (≈ 284 µM); MCC at 120 h [3]: > 100 µg/mL; IC50 [13]: > 100 µg/mL; MCC at 120 h [13]: > 100 µg/mL; IC50 [15]: 0.909 µg/mL (≈ 2.88 µM); MIC [15]: 28 µg/mL (≈ 88.9 µM); MCC at 96 h [18]: > 100 µg/mL; IC50 (MCF7): 81.3 µg/mL (≈ 258 µM) |
| O=C(NN1C(=O)CSC1c1ccc(O)cc1)c1cnccn1 (configuration not stated) | 24.23 |  |  | 5.678 | 45.5719 | 40.52 | -5.94 | 39.38 | 41.07 | 30.2 | 27.67 | 1.8 | 53.37 | 45.24 | 31.9215 | 16.31 | 9.87 | -7.31 | 49.76 | 28.83 |  |
| CCOc1cc([C@@H]2SCC(=O)N2NC(=O)c2cnc(C)cn2)ccc1O | -16.05 | > 100 | > 100 | 12.75 | 7.269 | 78.71 | 21.36 | 29.15 | -27.76 | 32.72 | 11.17 | 16.07 | 90.6 | 86.08 | 28.89 | -12.53 | 12.73 | 15.08 | 16.57 | 1.412 | IC50 [3]: > 100 µg/mL; MCC at 120 h [3]: > 100 µg/mL; IC50 [13]: > 100 µg/mL; MCC at 120 h [13]: > 100 µg/mL; IC50 [15]: 0.337 µg/mL (≈ 0.9 µM); MIC [15]: 26.6 µg/mL (≈ 70.9 µM); MCC at 96 h [18]: > 100 µg/mL; IC50 (MCF7): > 100 µg/mL |
